Patent EP0106571A2, “Prophylactic substance or composition” (priority 1982, dated 1984)
Where two headings read alike, the source gives them in different places.

Tests used:
[1] = tested on: Human osteogenic sarcoma cells; test: Colony growth over three weeks with fatty acids or prostaglandins, Amidoschwarz stain; format: cell-based; conditions: for colonies in supplemented cultures: 20 µg/ml of medium added every second day, 500, 1,000 and 2,000 cell density cultures
Procedure: Human osteogenic sarcoma cells were seeded into 50 ml Greiner plastic flasks and maintained exactly as explained in Example 4.
At the end of three weeks the culture flasks were stained with a 0.1% Amidoschwarz stain solution.

[2] = tested on: MG63 Human osteogenic sarcoma cells; test: Colony formation after 7 days with two additions of fatty acid; format: cell-based; conditions: for suppressive action on proliferation and colony formation: dose series 5 to 100 µg/ml; for cell growth and colony formation: levels of supplementation above 40 µg/ml culture medium; for cells or colonies found on microscopic examination: supplementation levels between 40 and 100 µg/ml; for proliferation suppressive action: higher levels of supplementation, 80 and 100µg/ml
Procedure: MG63 Human osteogenic sarcoma cells were seeded in culture flasks as described in Examples 4 and 5. 2,000 cells were seeded in each flask. Duplicate sets of flasks were used for each of the fatty acids tested. The following fatty acids dissolved in standard growth medium were added to the cells in culture, after allowing 2 days for cell attachment, and again after a further 3 days. Each culture therefore had only 2 additions of the relevant fatty acid. The cells were stained and examined at the end of 7 days in culture: • 1. Culture medium only - control. • 2. 5, 10, 20, 40, 60, 80 and 100µg oleic acid respectively /ml culture medium. […] 5; 10, 20, 40, 60, 80 and 100µg LA respectively /ml culture medium. • 4. 5, 10, 20, 40, 60, 80 and […] ALA respectively ./ml culture. medium. • 5. 5, 10, 20, 40, 60, 80 and 100µg/ml AA respectively /ml culture medium. • 6. 5, 10, 20, 40, 60, 80 and 100µg/ml EPA respectively /ml culture medium. • ..7.

MDBK bovine kidney cells = conditions: any of the GLA doses (0.5 to 10 µg/ml), 7 days
Procedure: (§1) Thus each culture set comprised 13 separate experiments. […] Each set of dosages was duplicated for both cell lines. Thus, a total of 280 separate cultures were used for these determinations. For statistical treatment an average value of each duplicate was used as n = I. • (i) Growth Curves Protocol: The cells were seeded in a standard growth medium (McCoys 5A medium) from stock cultures into Greiner 50 ml plastic flasks at subconfluent densities ranging from I x 10^5 cells/flask.
(§2) These cultures flasks were incubated in a humidified atmosphere of 5% C02, 95% air at 37°C for 7 days. After this period cell counts and viabilities were determined, the latter by trypan blue dye exclusion.
(§3) Data Reduction and Statistical Analyses: Using the values of cell counts obtained as described above, the difference of each cell count from its control was expressed as a perecentage of the control. As the growth curves were repeated several times for each dose for both normal and cancer cells, the mean value and standard error was determined for each dose. […] For the purpose of presentation these percentage differences are expressed as the percentage reduction of growth rate (-GR%).

BL6 mouse melanoma cells [3] = conditions: GLA doses above 7 µg/ml, single dose, 7 days, plateau of the curve
Procedure: as §1, §2, §3

BL6 mouse melanoma cells [4] = test: cells
Procedure: as §1
Plates were incubated in a 5% C02 humidified atmosphere at 37 °C. For the final 24 hours, 0.4 µCl of [6^-3H]-thymidine or I µCl of L-[methyl -^3H] -methionine (New England Nuclear, Boston, Mass) was added to each incubation mixture on the micrplate. The cells were then collected using a Skatron automatic harvester onto glass fibre reinforced resin filters. The filters were dried and dissolved in 10 ml Picofluor ^TM30 (Packard). The [6-^3H] -thymidine incorporation into DNA and the L-[methyl-^3H] -methionine incorporation into proteins was counted on a Packard Tri-Carb scintillation counter.

human hepatoma cells = test: cells; conditions: for inhibition at 20 µg/mL: Homo sapiens, read-out: Reduction in growth rate (%), daily GLA 20 µg/ml; for GLA supplemented cell number (x10^4) Mean: daily GLA 20 µg/ml, n = 4
Procedure: To control flasks only 20µl of the sodium carbonate vehicle was added.
Cells: Cells of the human primary carcinoma of the liver line were provided by Dr. J.J. Alexander of the Division of Virology, Department of Microbiology, Medical University of South Africa. These cells were maintained in Grenier plastic flasks in McCoys 5A medium as described in Example I.
The cells were seeded in the standard growth medium from stock cultures into Greiner 50 ml plastic flasks at subconfluent densities ranging from 2 x 10^5 to 3 x 10^5 cells per flask. […] These culture flasks were included in a humidified atmosphere of 5% CO2, 95% air at 37°. At the end of each experiment the detached, dead cells were discarded with the culture medium. The living attached cells were trypsinised and then counted using a Coulter counter. Cell viability was checked by trypan blue dye exclusion. In addition, the culture flasks were viewed and photographed daily under a Nikon diaphot inverted phase microscope.
The cells were counted after 4 days in culture.

BL6 mouse melanoma cells [5] = conditions: GLA 20 µg/ml daily for two weeks
Procedure: Only 20µI of the sodium carbonate vehicle was added to control flasks.
Malignant BL6 mouse melanoma cells were maintained in Griener plastic flasks (Labortechnik) containing 10% fetal calf serum (Flor Laboratories) and antibiotics. Stock cultures were refed twice weekly and were subcultured at. weekly intervals or sooner if required. The BL6 mouse melanoma cells were supplied by Dr. C. Albrecht, Department of Pharmacology, University of Stellenbosch, South Africa.
Duplicates were set up for the three densities.
The culture flasks were incubated in a humidified atmosphere of 5% C02, 95% air at 37°C. At the end of the two weeks period the culture flasks were stained using a 0.1% Amidoschwarz stain solution.

[6] = tested on: Oesophageal carcinoma cells; conditions: 10 µg GLA per day for six days; for Cell count (x 10^6) + GLA Mean: Oesophageal Carcinoma, seeding density 0,14, n = 4
Text: (§4) Cells: MG63. osteoid-sarcoma cells were obtained from Flow Laboratories. Oesophageal carcinoma cells were obtained from Prof. J. Alexander of the Department of Microbiology at Medunsa, South Africa. Control benign bovine kidney cells (MDBK) were from the same stock that were used in the previous examples.

[7] = tested on: MG63 osteoid-sarcoma cells; conditions: for Cell count (x 10^6) + GLA Mean: MG63, seeding density 0,3, daily GLA, n = 4
Text: as §4

[8] = tested on: benign bovine kidney cells (MDBK); conditions: for Cell count (x 10^6) + GLA Mean: MDBK, seeding density 0,3, daily GLA, n = 4
Text: as §4

human cancer cells = test: Proliferation suppressive effect of prostaglandins (statement, no method); format: cell-based; conditions: compared with PGEI; no conditions given
[9] = 20 µg/ml of medium added every second day
[10] = 5 µg/ml of medium added every second day

CCCCC/C=C\C/C=C\C/C=C\C/C=C\CCCC(=O)O [AA, arachidonic acid]
growth suppressive effect on the cancer cells in culture (summary) [1, 9]: complete growth suppressive effect
colonies in supplemented cultures [1]: completely devoid of any colonies
suppressive action on proliferation and colony formation ([2]; 2 additions): almost equal, progressive, suppressive action
cell growth and colony formation ([2]; 2 additions): completely suppressed
cells or colonies found on microscopic examination [2]: Not a single cell or colony of cells could be found

CC/C=C\C/C=C\C/C=C\CCCCCCCC(=O)O [ALA, a-linolenic acid, reference compound]
proliferation suppressive action ([2]; 2 additions): definite proliferation suppressive action

CCCCC/C=C\C/C=C\C/C=C\CCCCC(=O)O [GLA, gamma linolenic acid]
response of growth rate to GLA (MDBK bovine kidney cells): no apparent response
percentage reduction of growth rate (-GR%) (BL6 mouse melanoma cells [3]): about 70%
inhibition at 10 µg/mL (BL6 mouse melanoma cells [4]; read-out: reduction in methionine uptake): 58.9%
inhibition at 10 µg/mL (BL6 mouse melanoma cells [4]; read-out: reduction in thymidine uptake): 59.1%
growth suppressive effect on the cancer cells in culture (summary) [1, 9]: complete growth suppressive effect
colonies in supplemented cultures [1]: completely devoid of any colonies
inhibition at 20 µg/mL (human hepatoma cells; 24 h, day 1, versus control flasks (negative = more cells than control)): -44%
inhibition at 20 µg/mL (human hepatoma cells; 48 h, day 2, versus control flasks): 66%
inhibition at 20 µg/mL (human hepatoma cells; 72 h, day 3, versus control flasks): 78%
inhibition at 20 µg/mL (human hepatoma cells; 96 h, day 4 Run 1, versus control flasks): 87%
inhibition at 20 µg/mL (human hepatoma cells; 96 h, day 4 Run 2, versus control flasks): 78%
GLA supplemented cell number (x10^4) Mean (human hepatoma cells; day 1): 8,12 x10^4
GLA supplemented cell number (x10^4) Mean (human hepatoma cells; day 2): 3,79 x10^4
GLA supplemented cell number (x10^4) Mean (human hepatoma cells; day 3): 3,35 x10^4
GLA supplemented cell number (x10^4) Mean (human hepatoma cells; day 4 Run 1): 2,96 x10^4
GLA supplemented cell number (x10^4) Mean (human hepatoma cells; day 4 Run 2): 7,25 x10^4
difference between growth rates of GLA supplemented and control cells (human hepatoma cells; single dose of GLA 20 µg/ml on day 1, after four days): no significant difference
cell count (human hepatoma cells; single dose of GLA 20 µg/ml on day 1, counted after four days, n = 8, spread printed ± 4.85): 19.81 x 104
suppressive action on proliferation and colony formation ([2]; 2 additions): almost equal, progressive, suppressive action
cell growth and colony formation ([2]; 2 additions): completely suppressed
cells or colonies found on microscopic examination [2]: Not a single cell or colony of cells could be found
growth and proliferation (BL6 mouse melanoma cells [5]): completely suppressed
colonies observed (BL6 mouse melanoma cells [5]; 500, 1,000 or 2,000 cells seeded per flask): not a single colony
Cell count (x 10^6) + GLA Mean ([6]; day 2): 0,14 x 10^6
Cell count (x 10^6) + GLA Mean ([6]; day 3): 0,22 x 10^6
Cell count (x 10^6) + GLA Mean ([6]; day 4): 0,31 x 10^6
Cell count (x 10^6) + GLA Mean ([6]; day 5): 0,68 x 10^6
Cell count (x 10^6) + GLA Mean ([6]; day 6): 0,63 x 10^6
Cell count (x 10^6) + GLA Mean ([6]; day 7): 1,82 x 10^6
Cell count (x 10^6) + GLA Mean ([6]; day 8): 2.04 x 10^6
growth suppressive effect ([6]; oesophageal carcinoma cells, end of the eight day period, 11520 min): 69%
Cell count (x 10^6) + GLA Mean ([7]; day 2): 0,19 x 10^6
Cell count (x 10^6) + GLA Mean ([7]; day 3): 0,31 x 10^6
Cell count (x 10^6) + GLA Mean ([7]; day 4): 0,48 x 10^6
growth suppressive effect ([7]; MG63 cells, daily GLA supplementation, over seven days, versus untreated MG63 cells, 10080 min): 76%
mean number of GLA supplemented cells compared with unsupplemented cells ([8]; MDBK cells, end of the seven day period): exceed
Cell count (x 10^6) + GLA Mean ([8]; day 2): 0,43 x 10^6
Cell count (x 10^6) + GLA Mean ([8]; day 3): 0,70 x 10^6
Cell count (x 10^6) + GLA Mean ([8]; day 6): 1,53 x 10^6
Cell count (x 10^6) + GLA Mean ([8]; day 7): 1,81 x 10^6

CCCCC/C=C\C/C=C\CCCCCCCC(=O)O [LA, linoleic acid]
growth suppressive effect on the cancer cells in culture (summary) [1, 9]: some growth suppressive effect
activity at 20 µg/mL ([1]; Homo sapiens, 504 h, 20 µg/ml of medium added every second day, read-out: growth achieved relative to control cultures): ~75%
proliferation suppressive action ([2]; 2 additions): definite proliferation suppressive action

CCCCCCCC/C=C\CCCCCCCC(=O)O [OA, Oleic acid]
growth achieved relative to control cultures [1, 9]: about the same growth as control cultures
growth suppressive effect on the cancer cells in culture (summary) [1, 9]: no suppressive effect
densities of colonies ([2]; all levels of supplementation between 5 and 100µg/ml, 2 additions, compared with culture medium only): equal densities of colonies

CCCCC[C@H](O)/C=C/[C@H]1C=CC(=O)[C@@H]1CCCCCCC(=O)O [PGA1]
growth suppressive effect on the cancer cells in culture (summary) [1, 10]: more pronounced growth suppressive effect

CCCCC[C@H](O)/C=C/[C@H]1[C@H](O)CC(=O)[C@@H]1CCCCCCC(=O)O [PGE1, prostaglandin E 1]
growth suppressive effect on the cancer cells in culture (summary) [1, 10]: more pronounced growth suppressive effect
activity at 5 µg/mL ([1]; Homo sapiens, 504 h, 5 µg/ml of medium added every second day, read-out: growth achieved relative to control cultures): ~25%

CCCCC[C@H](O)/C=C/[C@@H]1[C@@H](CCCCCCC(=O)O)[C@@H](O)C[C@H]1O [PGF1a]
proliferation suppressive effect on human cancer cells (human cancer cells): no effect at all
growth achieved relative to control cultures [1, 10]: about the same growth as the control cultures
growth suppressive effect on the cancer cells in culture (summary) [1, 10]: no effect at all

CCCCC[C@H](O)/C=C/[C@@H]1[C@@H](C/C=C\CCCC(=O)O)[C@@H](O)C[C@H]1O [PGF2a]
proliferation suppressive effect on human cancer cells (human cancer cells): no effect at all
